Source: US20250297028A1, “TREATMENT OF RENAL CANCER USING A COMBINATION OF AN ANTI-PD-1 ANTIBODY AND ANOTHER ANTI-CANCER AGENT” (BRISTOL-MYERS SQUIBB COMPANY, priority 2014, published 2025)
Where two headings read alike, the source gives them in different places.

How the values were obtained:
[1] = system: renal cell carcinoma (RCC); conditions: cited from earlier work; for OS (overall survival): phase 3, poor-risk patients with advanced RCC (Hudes et al., 2007)
[2] = system: tumor-infiltrating immune cells in Renca tumors; test: Immune cell infiltration of Renca tumors (immunohistochemistry, flow cytometry); type: in vivo, mouse; conditions: versus control group
Description: Immunohistochemistry and flow cytometry analyses were used to assess immune cell infiltration of tumors.
Frozen sections were fixed in an acetone/methanol mix and rinsed in phosphate-buffered saline (PBS). Sections were blocked for endogenous peroxidase and the primary antibodies (anti-CD8, anti-CD4, anti-FoxP3, and anti-PD-L1) were added and incubated overnight. Chromogenic development was done using a brown polymer-based detection system (Biocare Medical), with hematoxylin used as a blue counter stain for visualization of cellular nuclei.
Tumor-infiltrating immune cells were isolated and prepared as a single-cell suspension, then stained and analyzed via flow cytometry for expression of T-cell subsets (regulatory and activated) and myeloid cells (i.e., for expression of CD3, CD4, CD8, FoxP3, CD25, and CD69).

[3] = system: murine renal carcinoma (Renca) tumor; test: Efficacy study in Renca murine RCC tumor model; type: in vivo, mouse; conditions: for % TGI (tumor growth inhibition) / Objective Responses (ORs): 33 days after implantation; for % TGI (tumor growth inhibition): sunitinib 120 mg/kg QD×14 PO, sorafenib 200 mg/kg QD×14 PO, 4H2 10 mg/kg Q4D×4 IP; for Objective Responses (ORs): responders/8 mice
Description: Female 8-12 weeks old Balb/c and C57/BL6 mice (Harlan Laboratories, Federick, MD) were used in all studies. Mice were housed in sterile microisolator cages and administered sterile food and water ad libitum, unless otherwise specified.
The murine renal carcinoma (Renca) and murine colon adenocarcinoma (CT-26) tumor cell lines were maintained in vitro for less than 10 passages.
Tumor cells were implanted subcutaneously (SC). When the mean tumor volume reached about 100 mm^3, mice were randomized into groups of 8 animals. Vehicle (control), sunitinib (120 mg/kg) or sorafenib (200 mg/kg) was orally administered once daily for 14 days (QD×14, PO). MAb 4H2 was administered at 10 mg/kg every 4 days for a total of 4 treatments (Q4D×4) intraperitoneally (IP). Tumors were measured twice weekly, and the tumor volume was calculated as length×(width^2/2).

PD-1 = biological target: T1, PD-1 (Homo sapiens, UniProt Q15116); conditions: 15 subjects, 0.3 to 10 mg/kg, across all doses; cited from earlier work
T1 construct: indicate that PD-1 occupancy appears to be dose-independent in this dose range; endogenous in cells

[4] = dosing up to 10 mg/kg every two weeks; cited from earlier work

T1 sequence (Q15116 25-288): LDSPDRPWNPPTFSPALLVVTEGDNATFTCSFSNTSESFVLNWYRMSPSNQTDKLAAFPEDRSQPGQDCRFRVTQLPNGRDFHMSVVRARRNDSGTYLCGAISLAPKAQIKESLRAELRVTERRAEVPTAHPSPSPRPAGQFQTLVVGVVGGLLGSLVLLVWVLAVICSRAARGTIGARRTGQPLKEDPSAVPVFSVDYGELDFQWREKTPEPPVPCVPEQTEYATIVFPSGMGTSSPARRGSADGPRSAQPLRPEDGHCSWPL

## CO[C@H]1C[C@@H]2CC[C@@H](C)[C@@](O)(O2)C(=O)C(=O)N2CCCC[C@H]2C(=O)O[C@H]([C@H](C)C[C@@H]2CC[C@@H](OCCO)[C@H](OC)C2)CC(=O)[C@H](C)/C=C(\C)[C@@H](O)[C@@H](OC)C(=O)[C@H](C)C[C@H](C)/C=C/C=C/C=C/1C [Everolimus]
[1]; Motzer et al., 2008
  improvement in median progression-free survival (PFS) versus placebo: 2.1 month
[1]; versus placebo (Motzer et al., 2008)
  OS improvement: no OS improvement

## CNC(=O)c1cc(Oc2ccc(NC(=O)Nc3ccc(Cl)c(C(F)(F)F)c3)cc2)ccn1 [Sorafenib]
[1]; randomized Phase 2, 128 treatment-naïve mRCC subjects (Procopio et al., 2011)
  response rate: 15%
[2]
  infiltration of CD4+ and CD8+ T cells into tumor (IHC): increased T-cell infiltration into the tumor was not observed
[3]
  % TGI (tumor growth inhibition): 62%
  Objective Responses (ORs): 0/8
[3]; monotherapy
  activity as monotherapy in Renca model: active

## CCN(CC)CCNC(=O)c1c(C)[nH]c(/C=C2\C(=O)Nc3ccc(F)cc32)c1C [Sunitinib]
[3]
  % TGI (tumor growth inhibition): 85%
  Objective Responses (ORs): 0/8

## CO[C@H]1C[C@@H]2CC[C@@H](C)[C@@](O)(O2)C(=O)C(=O)N2CCCC[C@H]2C(=O)O[C@H]([C@H](C)C[C@@H]2CC[C@@H](OC(=O)C(C)(CO)CO)[C@H](OC)C2)CC(=O)[C@H](C)/C=C(\C)[C@@H](O)[C@@H](OC)C(=O)[C@H](C)C[C@H](C)/C=C/C=C/C=C/1C [temsirolimus]
[1]
  OS (overall survival): 10.9 months

## IFNα
[1]
  OS (overall survival): 7.3 months

## ipilimumab: fully human, IgG1 monoclonal Ab that blocks the binding of CTLA-4 to its B7 ligands
[1]; Phase 2 metastatic RCC, cohort A: 3 mg/kg loading dose then 1 mg/kg every 3 wk (Yang et al., 2007)
  ORR: 5%
[1]; Phase 2 metastatic RCC, cohort B: 3 mg/kg every 3 wk for all doses (Yang et al., 2007)
  ORR: 12.5%

## nivolumab
PD-1
  mean PD-1 occupancy rate: 85%
  mean plateau PD-1 occupancy: 72%
[1]; 0.3 mg/kg, Phase 2 metastatic RCC (Motzer et al., 2014)
  ORR: 20%
[1]; 0.3 mg/kg, pretreated with 1-3 prior anti-angiogenic therapies (Choueiri et al., 2014)
  ORR: 9%
[1]; 2 mg/kg, Phase 2 metastatic RCC (Motzer et al., 2014)
  ORR: 22%
[1]; 2 mg/kg, pretreated with 1-3 prior anti-angiogenic therapies (Choueiri et al., 2014)
  ORR: 23%
[1]; 10 mg/kg, Phase 2 metastatic RCC (Motzer et al., 2014)
  ORR: 20%
[1]; 10 mg/kg, pretreated with 1-3 prior anti-angiogenic therapies (Choueiri et al., 2014)
  ORR: 22%
[1]; 10 mg/kg, treatment-naïve patients (Choueiri et al., 2014)
  ORR: 13%
[1]; nivolumab 1 or 10 mg/kg alone, RCC, Phase 1 (WO 2013/173223)
  ORR: 28-31%
[4]
  maximum tolerated dose (MTD), monotherapy: without reaching the maximum tolerated does (MTD)
